The test system of test [1] is HCT116. The test can be described thus: HCT116 IC50. Type of test: cell-based. Particulars: Homo sapiens, HCT-116.
The target of test [2] is T1, HDAC-1 (Homo sapiens, UniProt Q13547).
T1 construct: made in house; host or cells: Sf9 or Sf21 insect cells (baculovirus, donor vector pFB-GSTX3)
As to the kind of experiment: HDAC inhibition assay (purified GST-HDAC protein). Type of test: biochemical. An excerpt: The baculovirus donor vector pFB-GSTX3 was used to generate a recombinant baculovirus that can express the HDAC polypeptide. Transfer vectors containing the HDAC coding region were transfected into the DH10Bac cell line (GIBCO) and plated on selective agar plates. Colonies without insertion of the fusion sequence into the viral genome (carried by the bacteria) were blue. Single, white colonies were picked and viral DNAs (bacmid) were isolated from the bacteria by standard plasmid purification procedures. Sf9 cells or Sf21 (American Type Culture Collection) cells were then transfected in […] flasks with the viral DNA using Cellfectin reagent.
Virus-containing media was collected from the transfected cell culture and used for infection to increase its titer. Virus-containing media obtained after two rounds of infection was used for large-scale protein expression. For large-scale protein expression 100 cm^2 round tissue culture plates were seeded with 5×10^7 cells/plate and infected with 1 mL of virus-containing media (at an approximately MOI of 5). After 3 days, the cells were scraped off the plate and centrifuged at 500 rpm for 5 minutes. Cell pellets from 10-20, 100 cm^2 plates, were re-suspended in 50 mL of ice-cold lysis buffer (25 mM tris-HCl, pH 7.5, 2 mM EDTA, 1% NP-40, 1 mM DTT, 1 mM P MSF). The cells were stirred on ice for 15 minutes and then centrifuged at 5,000 rpms for 20 minutes.
The centrifuged cell lysate was loaded onto a 2 mL glutathione-sepharose column (Pharmacia) and was washed thrice with 10 mL of 25 mM tris-HCl, pH 7.5, 2 mM EDTA, 1 mM DTT, 200 mM NaCl. The GST-tagged proteins were then eluted by 10 applications (1 mL each) of 25 mM tris-HCl, pH 7.5, 10 mM reduced-glutathione, 100 mM NaCl, 1 mM DTT, 10% glycerol and stored at −70° C.
HDAC assays with purified GST-HDAC protein were carried out in a final volume of 30 μL containing 15 ng of GST-HDAC protein, 20 mM tris-HCl, pH 7.5, 1 mM MnCl2, 10 mM MgCl2, 1 mM DTT, 3 μg/mL poly(Glu,Tyr) 4:1, 1% DMSO, 2.0 μM ATP (γ-[^33P]-ATP 0.1 μCi). The activity was assayed in the presence or absence of inhibitors. The assay was carried out in 96-well plates at ambient temperature for 15 minutes under conditions described below and terminated by the addition of 20 μL of 125 mM EDTA. Subsequently, 40 μL of the reaction mixture were transferred onto EMMOBILON-PVDF membrane (Millipore) previously soaked for 5 minutes with methanol, rinsed with water, then soaked for 5 minutes with 0.5% H3PO4 and mounted on vacuum manifold with disconnected vacuum source. After spotting all samples, a vacuum was connected and each well rinsed with 200 μL 0.5% H3PO4. Membranes were removed and washed four times on a shaker with 1.0% H3PO4, once with ethanol. Membranes were counted after drying at ambient temperature, mounting in Packard TopCount 96-well frame, and addition of 10 μL/well of MICROSCINT™ (Packard). IC50 values were calculated by linear regression analysis of the percentage inhibition of each compound in duplicate, at 4 concentrations (usually 0.01, 0.1, 1 and 10 μM).
• Input: 3×4 μL stopped assay on IMMOBILON membrane, not washed • Background (3 wells): assay with H2O instead of enzyme • Positive control (4 wells): 3% DMSO instead of compound • Bath control (1 well): no reaction mix
IC50 values were calculated by logarithmic regression analysis of the percentage inhibition of each compound at 4 concentrations (usually 3- or 10-fold dilution series starting at 10 μM). In each experiment, the actual inhibition by reference compound was used for normalization of IC50 values to the basis of an average value of the reference inhibitor: Normalized IC50=measured IC50 average ref IC50/measured ref IC50
Example: Reference inhibitor in experiment 0.4 μM, average 0.3 μM, Test compound in experiment 1.0 μM, normalization: 0.3/0.4=0.75 μM
For example, known HDAC inhibitors or a synthetic derivative thereof may be used as reference compounds.

Molecules are shown by their SMILES.

T1 sequence (Q13547 whole entry, species assumed): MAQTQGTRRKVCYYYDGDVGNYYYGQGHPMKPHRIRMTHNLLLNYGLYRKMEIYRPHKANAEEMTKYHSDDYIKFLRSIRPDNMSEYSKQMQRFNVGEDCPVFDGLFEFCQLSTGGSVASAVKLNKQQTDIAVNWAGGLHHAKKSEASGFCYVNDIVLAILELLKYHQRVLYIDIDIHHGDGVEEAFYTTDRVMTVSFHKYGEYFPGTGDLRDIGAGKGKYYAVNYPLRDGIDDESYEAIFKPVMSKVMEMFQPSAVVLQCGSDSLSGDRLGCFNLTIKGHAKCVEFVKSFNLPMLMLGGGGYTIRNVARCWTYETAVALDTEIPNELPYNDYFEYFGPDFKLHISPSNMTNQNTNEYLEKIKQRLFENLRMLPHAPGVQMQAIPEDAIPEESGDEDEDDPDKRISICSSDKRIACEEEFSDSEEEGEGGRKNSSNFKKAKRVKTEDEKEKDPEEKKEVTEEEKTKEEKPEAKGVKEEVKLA

As to `Cc1ccc(C(O)CN2CCCC2c2ccc(/C=C/C(=O)NO)cc2)cc1` (stereo not shown) [Compound 29, (E)-N-Hydroxy-3-{4-[1-(2-hydroxy-2-p-tolyl-ethyl)-pyrrolidin-2-yl]-phenyl}-acrylamide], the IC50 in test [1] amounted to 40 nM; in test [2], 8 nM.

As to `COc1ccc(C(O)CN2CCCC2c2ccc(/C=C/C(=O)NO)cc2)cc1` (stereo not shown) [Compound 30, (E)-N-Hydroxy-3-(4-{1-[2-hydroxy-2-(4-methoxy-phenyl)-ethyl]-pyrrolidin-2-yl}-phenyl)-acrylamide], the figures for the IC50 in test [1] and in test [2] were 46 nM and 14 nM, respectively.

Consider `O=C(/C=C/c1ccc(C2CCCN2CC(O)c2ccc(Cl)cc2)cc1)NO` (stereo not shown) [Compound 31, (E)-3-(4-{1-[2-(4-Chloro-phenyl)-2-hydroxy-ethyl]-pyrrolidin-2-yl}-phenyl)-N-hydroxy-acrylamide], for which the 50% inhibitory concentration (IC50) was 67 nM in test [1] and 5 nM in test [2].

For the molecule `O=C(/C=C/c1ccc(C2CCCN2CCCc2ccccc2)cc1)NO` (stereo not shown) [Compound 33, (E)-N-Hydroxy-3-{4-[1-(3-phenyl-propyl)-pyrrolidin-2-yl]-phenyl}-acrylamide], the IC50 stood at 39 nM in test [1] and 5 nM in test [2].

`O=C(/C=C/c1ccc(C2CCCN2CCc2ccccn2)cc1)NO` (stereo not shown) [Compound 34, (E)-N-Hydroxy-3-{4-[1-(2-pyridin-2-yl-ethyl)-pyrrolidin-2-yl]-phenyl}-acrylamide]: the half-inhibitory concentration (IC50) in test [1] amounted to 77 nM; in test [2] it was 21 nM.

Turning to `O=C(/C=C/c1ccc([C@@H]2CCCN2CCc2ccsc2)cc1)NO` [Compound 35, (E)-N-Hydroxy-3-{4-[(S)-1-(2-thiophen-3-yl-ethyl)-pyrrolidin-2-yl]-phenyl}-acrylamide], the concentration for half-maximal inhibition (IC50) in test [1] is 9 nM; in test [2], 5 nM.

For `CC(C)CCN1CCCC1c1ccc(/C=C/C(=O)NO)cc1` (stereo not shown) [Compound 36, (E)-N-Hydroxy-3-{4-[1-(3-methyl-butyl)-pyrrolidin-2-yl]-phenyl}-acrylamide], the figures for the IC50 in test [1] and in test [2] were 40 nM and 10 nM, respectively.

Take `O=C(/C=C/c1ccc(C2CCCN2CC2CCCC2)cc1)NO` (stereo not shown) [Compound 40, (E)-3-[4-(1-Cyclopentylmethyl-pyrrolidin-2-yl)-phenyl]-N-hydroxy-acrylamide]: the IC50 in test [1] was found to be 42 nM; in test [2], 9 nM.

As for `O=C(/C=C/c1ccc([C@@H]2CCCN2CCC2CCCCC2)cc1)NO` [Compound 41, (E)-3-{4-[(S)-1-(2-Cyclohexyl-ethyl)-pyrrolidin-2-yl]-phenyl}-N-hydroxy-acrylamide], the 50% inhibitory concentration (IC50) came out at 48 nM in test [1] and 7 nM in test [2].

Consider `O=C(/C=C/c1ccc([C@@H]2CCCN2CCC2CCOCC2)cc1)NO` [Compound 42, (E)-N-Hydroxy-3-(4-{(S)-1-[2-(tetrahydro-pyran-4-yl)-ethyl]-pyrrolidin-2-yl}-phenyl)-acrylamide], for which the half-maximal inhibitory concentration (IC50) in test [1] was found to be 53 nM; in test [2], 32 nM.

In the case of `O=C(/C=C/c1ccc([C@@H]2CCCN2CCc2cnn3ccccc23)cc1)NO` [Compound 43, (E)-N-Hydroxy-3-{4-[(S)-1-(2-pyrazolo[1,5-a]pyridin-3-yl-ethyl)-pyrrolidin-2-yl]-phenyl}-acrylamide], the results for the IC50 in test [1] and in test [2] were 1.1 nM and 1 nM, respectively.

As for `Cc1nn2ccccc2c1CCN1CCC[C@H]1c1ccc(/C=C/C(=O)NO)cc1` [Compound 44, (E)-N-Hydroxy-3-(4-{(S)-1-[2-(2-methyl-pyrazolo[1,5-a]pyridin-3-yl)-ethyl]-pyrrolidin-2-yl}-phenyl)-acrylamide], the results for the half-maximal inhibitory concentration (IC50) in test [1] and in test [2] were 0.38 nM and 0.6 nM, respectively.

As to `Cc1nn2ccccc2c1CCN1CCC[C@@H]1c1ccc(/C=C/C(=O)NO)cc1` [Compound 45, (E)-N-Hydroxy-3-(4-{(R)-1-[2-(2-methyl-pyrazolo[1,5-a]pyridin-3-yl)-ethyl]-pyrrolidin-2-yl}-phenyl)-acrylamide], the IC50 in test [1] amounted to 8 nM; in test [2], 2.4 nM.

As to `O=C(/C=C/c1ccc([C@@H]2CCCN2CCc2c(C(F)(F)F)nn3ccccc23)cc1)NO` [Compound 46, (E)-N-Hydroxy-3-(4-{(S)-1-[2-(2-trifluoromethyl-pyrazolo[1,5-a]pyridin-3-yl)-ethyl]-pyrrolidin-2-yl}-phenyl)-acrylamide], the IC50 in test [1] turned out to be 0.6 nM; in test [2], 3 nM.

As to `CCc1nn2ccccc2c1CCN1CCC[C@H]1c1ccc(/C=C/C(=O)NO)cc1` [Compound 47, (E)-3-(4-{(S)-1-[2-(2-Ethyl-pyrazolo[1,5-a]pyridin-3-yl)-ethyl]-pyrrolidin-2-yl}-phenyl)-N-hydroxy-acrylamide], the half-inhibitory concentration (IC50) in test [1] stood at 0.35 nM; in test [2], 1 nM.

As to `CC(C)(O)c1nn2ccccc2c1CCN1CCC[C@H]1c1ccc(/C=C/C(=O)NO)cc1` [Compound 48, (E)-N-Hydroxy-3-[4-((S)-1-{2-[2-(1-hydroxy-1-methyl-ethyl)-pyrazolo[1,5-a]pyridin-3-yl]-ethyl}-pyrrolidin-2-yl)-phenyl]-acrylamide], the half-maximal inhibitory concentration (IC50) in test [1] came to 3 nM; in test [2], 2 nM.

Consider `O=C(/C=C/c1ccc([C@@H]2CCCN2CCc2c(-c3cnccn3)nn3ccccc23)cc1)NO` [Compound 49, (E)-N-Hydroxy-3-(4-{(S)-1-[2-(2-pyrazin-2-yl-pyrazolo[1,5-a]pyridin-3-yl)-ethyl]-pyrrolidin-2-yl}-phenyl)-acrylamide], for which the IC50 in test [1] and in test [2] was 3 nM throughout.

For the molecule `O=C(/C=C/c1ccc([C@@H]2CCCN2CCc2c(-c3cccnc3)nn3ccccc23)cc1)NO` [Compound 50, (E)-N-Hydroxy-3-(4-{(S)-1-[2-(2-pyridin-3-yl-pyrazolo[1,5-a]pyridin-3-yl)-ethyl]-pyrrolidin-2-yl}-phenyl)-acrylamide], the IC50 in test [1] amounted to 0.4 nM; in test [2], 1 nM.

For `O=C(/C=C/c1ccc([C@@H]2CCCN2CCc2c[nH]c3ncccc23)cc1)NO` [Compound 51, (E)-N-Hydroxy-3-(4-{(S)-1-[2-(1H-pyrrolo[2,3-b]pyridin-3-yl)-ethyl]-pyrrolidin-2-yl}-phenyl)-acrylamide], the figures for the IC50 in test [1] and in test [2] were 4 nM and 1.2 nM, respectively.

With `CC(C)(C)c1[nH]c2ncccc2c1CCN1CCC[C@H]1c1ccc(/C=C/C(=O)NO)cc1` [Compound 52, (E)-3-(4-{(S)-1-[2-(2-tert-Butyl-1H-pyrrolo[2,3-b]pyridin-3-yl)-ethyl]-pyrrolidin-2-yl}-phenyl)-N-hydroxy-acrylamide], the IC50 in test [1] is 4.3 nM; in test [2], 2.7 nM.

Consider `O=C(/C=C/c1ccc(C2CCCN2CCc2cnc3ccccn23)cc1)NO` (stereo not shown) [Compound 53, (E)-N-Hydroxy-3-{4-[1-(2-imidazo[1,2-a]pyridin-3-yl-ethyl)-pyrrolidin-2-yl]-phenyl}-acrylamide], for which the IC50 in test [1] came out at 1 nM; in test [2] it was 0.9 nM.

Take `Cc1nc2ccccn2c1CCN1CCC[C@H]1c1ccc(/C=C/C(=O)NO)cc1` [Compound 54, (E)-N-Hydroxy-3-(4-{(S)-1-[2-(2-methyl-imidazo[1,2-a]pyridin-3-yl)-ethyl]-pyrrolidin-2-yl}-phenyl)-acrylamide]: the IC50 in test [1] was 4 nM; in test [2], 3 nM.

Consider `Cc1nn(-c2ccccc2)c(C)c1CCN1CCC[C@H]1c1ccc(/C=C/C(=O)NO)cc1` [Compound 55, (E)-3-(4-{(S)-1-[2-(3,5-Dimethyl-1-phenyl-1H-pyrazol-4-yl)-ethyl]-pyrrolidin-2-yl}-phenyl)-N-hydroxy-acrylamide], for which the IC50 in test [1] was determined as 1.1 nM; in test [2], 2 nM.

The term IC50 denotes the point on the concentration scale where inhibition reaches its midpoint. Read a low IC50 as greater potency in that assay.

The values are drawn from patent US8349883B2, “Hydroxamate-based inhibitors of deacetylases B” (Novartis AG, priority 2008, dated 2013).
